EP0543555A1, “Phosphorylated flavanoids in the treatment of viral diseases” (MERRELL DOW PHARMACEUTICALS INC., priority 1991, dated 1993)
Several values for one entry are separate records, joined by “and”; a condition that tells them apart may be missing. Identical values can stand only once. Like-named read-outs stand apart in the source and are kept apart here.

Tests used:
HIV-1 [1] = test: microbe, parasite or virus in culture
Experimental: (§1) JM cells were infected with HIV-1 for 2 hours at room temperature. The cells were then washed and distributed into duplicate wells containing different concentrations of the test compound and incubated at 37°C. On days 3 and 4 the cells were observed and the syncytia counted and on day 4 the supernatant fluid was also harvested for detection of p24 viral core antigen using the Abbott EIA.

HIV-1 [2] = conditions: for p24: day 4 supernatant; for Mean Syncytial Counts Day 3 % / Mean Syncytial Counts Day 4 %: % of virus control; for Mean Syncytial Counts Day 4 %: 5760 min
Experimental: as §1

[3] = system: Herpes type 2 strain HG52; test: Herpes type 2 plaque reduction assay (Vero cells); format: cell-based; conditions: for %: % of virus control
From the text: Cell Line: Vero Virus: Herpes type 2 strain HG52

CMV = test: Anti-CMV plaque reduction assay (AD169 strain, MRC 5 cell line); format: cell-based, cytomegalovirus (CMV); conditions: for %: % of virus control
Experimental: Experiments were carried out whereby phosphorylated hesperidin was present at the following times of the virus (AD169 strain, MRC 5 cell line) growth cycle. • 1. During adsorption and after • 2. During adsorption, then not • 3. Only added after adsorption A virus control with no drug was present on each plate.

[4] = Human immunodeficiency virus 1, 72 h, read-out: Mean Syncytial Counts Day 3 %
[5] = Human immunodeficiency virus 1, 96 h, read-out: Mean Syncytial Counts Day 4 %
[6] = First trial, during adsorption and incubation, 10 µg/ml
[7] = First trial, during adsorption and incubation, 50 µg/ml
[8] = First trial, during adsorption and incubation, 100 µg/ml
[9] = First trial, during adsorption, 10 µg/ml
[10] = First trial, during adsorption, 50 µg/ml
[11] = First trial, during adsorption, 100 µg/ml
[12] = Second trial, during adsorption and incubation, 125 µg/ml
[13] = Second trial, during adsorption and incubation, 250 µg/ml
[14] = Second trial, during adsorption and incubation, 500 µg/ml
[15] = Second trial, during adsorption, 500 µg/ml
[16] = Second trial, incubation only, 125 µg/ml
[17] = Second trial, incubation only, 250 µg/ml
[18] = Second trial, incubation only, 500 µg/ml
[19] = First trial, added before and after adsorption, 31 µg/ml
[20] = Second trial, during and after adsorption, 31 µg/ml
[21] = Second trial, during and after adsorption, 62 µg/ml
[22] = Third trial, after adsorption only, 3.75 µg/ml
[23] = Third trial, after adsorption only, 7.5 µg/ml
[24] = Third trial, after adsorption only, 15 µg/ml
[25] = Third trial, after adsorption only, 31µg/ml
[26] = Third trial, after adsorption only, 62 µg/ml
[27] = Third trial, during adsorption only, 3.75 µg/ml
[28] = Third trial, during adsorption only, 7.5 µg/ml
[29] = Third trial, during adsorption only, 15 µg/ml
[30] = Third trial, during adsorption only, 31µg/ml
[31] = Third trial, during and after adsorption, 3.75 µg/ml
[32] = Third trial, during and after adsorption, 7.5 µg/ml
[33] = Third trial, during and after adsorption, 15 µg/ml
[34] = Third trial, during and after adsorption, 31µg/ml
[35] = Third trial, during and after adsorption, 62 µg/ml

Nc1ccn([C@H]2CC[C@@H](CO)O2)c(=O)n1 [ddC, reference compound]
activity at 0.1 µM (HIV-1 [1]; [4]): 37% | activity at 0.3 µM (HIV-1 [1]; [4]): 0% | activity at 1 µM (HIV-1 [1]; [4]): 0% | activity at 3 µM (HIV-1 [1]; [4]): 0% | activity at 10 µM (HIV-1 [1]; [4]): 0% | activity at 0.1 µM (HIV-1 [1]; [5]): 37% | activity at 0.3 µM (HIV-1 [1]; [5]): 7% | activity at 1 µM (HIV-1 [1]; [5]): 0% | activity at 3 µM (HIV-1 [1]; [5]): 0% | activity at 10 µM (HIV-1 [1]; [5]): 0% | Mean Syncytial Counts Day 3 (HIV-1 [2]; Conc 0.1 µM): 21 | Mean Syncytial Counts Day 4 (HIV-1 [2]; Conc 0.1 µM): 31 | Mean Syncytial Counts Day 3 (HIV-1 [2]; Conc 0.3 µM): 0 | Mean Syncytial Counts Day 4 (HIV-1 [2]; Conc 0.3 µM): 6 | p24 (HIV-1 [2]; Conc 0.3 µM): 341 pg/mL | Mean Syncytial Counts Day 3 (HIV-1 [2]; Conc 1 µM): 0 | Mean Syncytial Counts Day 4 (HIV-1 [2]; Conc 1 µM): 0 | p24 (HIV-1 [2]; Conc 1 µM): 199 pg/mL | Mean Syncytial Counts Day 3 (HIV-1 [2]; Conc 3 µM): 0 | Mean Syncytial Counts Day 4 (HIV-1 [2]; Conc 3 µM): 0 | p24 (HIV-1 [2]; Conc 3 µM): 98 pg/mL | Mean Syncytial Counts Day 3 (HIV-1 [2]; Conc 10 µM): 0 | Mean Syncytial Counts Day 4 (HIV-1 [2]; Conc 10 µM): 0 | p24 (HIV-1 [2]; Conc 10 µM): 132 pg/mL

Phosphorylated Hesperidin
No. of Plaques [3, 6]: 253 and 243 | No. of Plaques Average [3, 6]: 248 | % [3, 6]: 100% | No. of Plaques [3, 7]: 112 and 132 | No. of Plaques Average [3, 7]: 122 | % [3, 7]: 54% | No. of Plaques [3, 8]: 95 and 62 | No. of Plaques Average [3, 8]: 78.5 | % [3, 8]: 35% | No. of Plaques [3, 9]: 211 and 231 | No. of Plaques Average [3, 9]: 221 | % [3, 9]: 98% | No. of Plaques [3, 10]: 154 and 146 | No. of Plaques Average [3, 10]: 150 | % [3, 10]: 66% | No. of Plaques [3, 11]: 187 and 144 | No. of Plaques Average [3, 11]: 166 | % [3, 11]: 73% | No. of Plaques [3, 12]: 58 and 71 | No. of Plaques Average [3, 12]: 64.5 | % [3, 12]: 46% | No. of Plaques [3, 13]: 11 and 10 | No. of Plaques Average [3, 13]: 10.5 | % [3, 13]: 7.5% | No. of Plaques [3, 14]: None | No. of Plaques Average [3, 14]: 0 | % [3, 14]: 0% | No. of Plaques [3, 15]: 50 and 58 | No. of Plaques Average [3, 15]: 54 | % [3, 15]: 38% | No. of Plaques [3, 16]: 50 and 61 | No. of Plaques Average [3, 16]: 55.5 | % [3, 16]: 39% | No. of Plaques [3, 17]: 16 and 11 | No. of Plaques Average [3, 17]: 13.5 | % [3, 17]: 9.6% | No. of Plaques [3, 18]: None | No. of Plaques Average [3, 18]: 0 | % [3, 18]: 0% | Mean Syncytial Counts Day 3 % (HIV-1 [2]; Conc 0.1 µg/ml, 4320 min): 100% | Mean Syncytial Counts Day 4 % (HIV-1 [2]; Conc 0.1 µg/ml): 100% | Mean Syncytial Counts Day 3 % (HIV-1 [2]; Conc 0.3 µg/ml, 4320 min): 100% | Mean Syncytial Counts Day 4 % (HIV-1 [2]; Conc 0.3 µg/ml): 100% | Mean Syncytial Counts Day 3 % (HIV-1 [2]; Conc 1 µg/ml, 4320 min): 100% | Mean Syncytial Counts Day 4 % (HIV-1 [2]; Conc 1 µg/ml): 100% | Mean Syncytial Counts Day 3 (HIV-1 [2]; Conc 3 µg/ml): As VC | Mean Syncytial Counts Day 3 % (HIV-1 [2]; Conc 3 µg/ml): 100% | Mean Syncytial Counts Day 4 % (HIV-1 [2]; Conc 3 µg/ml): 100% | Mean Syncytial Counts Day 3 (HIV-1 [2]; Conc 10 µg/ml): 51 | Mean Syncytial Counts Day 4 (HIV-1 [2]; Conc 10 µg/ml): As VC | Mean Syncytial Counts Day 3 % (HIV-1 [2]; Conc 10 µg/ml, 4320 min): 89% | Mean Syncytial Counts Day 4 % (HIV-1 [2]; Conc 10 µg/ml): 100% | Mean Syncytial Counts Day 3 (HIV-1 [2]; Conc 30 µg/ml): 9 | Mean Syncytial Counts Day 4 (HIV-1 [2]; Conc 30 µg/ml): 45 | Mean Syncytial Counts Day 3 % (HIV-1 [2]; Conc 30 µg/ml, 4320 min): 16% | Mean Syncytial Counts Day 4 % (HIV-1 [2]; Conc 30 µg/ml): 48% | Mean Syncytial Counts Day 3 (HIV-1 [2]; Conc 100 µg/ml): 0 | Mean Syncytial Counts Day 4 (HIV-1 [2]; Conc 100 µg/ml): 5 | Mean Syncytial Counts Day 3 % (HIV-1 [2]; Conc 100 µg/ml, 4320 min): 0% | Mean Syncytial Counts Day 4 % (HIV-1 [2]; Conc 100 µg/ml): 5% | No. of Plaques (CMV; [19]): 27 and 20 and 24 | No. of Plaques Average (CMV; [19]): 24 | % (CMV; [19]): 9.9% | No. of Plaques (CMV; First trial, added before and after adsorption, 125 µg/ml): No plaques | No. of Plaques (CMV; First trial, added before and after adsorption, 250 µg/ml): totally blocked | No. of Plaques (CMV; Second trial, after adsorption only, 31 µg/m): As virus control | No. of Plaques (CMV; Second trial, after adsorption only, 62 µg/ml): As virus control | No. of Plaques (CMV; Second trial, after adsorption only, 125 µg/ml): As virus control | No. of Plaques (CMV; Second trial, after adsorption only, 250 µg/ml): None | No. of Plaques (CMV; Second trial, after adsorption only, 500 µg/ml): None | No. of Plaques (CMV; [20]): 35 and 40 | No. of Plaques Average (CMV; [20]): 32.5 | % (CMV; [20]): 17% | No. of Plaques (CMV; [21]): 35 and 40 | No. of Plaques Average (CMV; [21]): 37.5 | % (CMV; [21]): 22% | No. of Plaques (CMV; Second trial, during and after adsorption, 125 µg/ml, estimate): ~40 (estimate) | No. of Plaques (CMV; Second trial, during and after adsorption, 250 µg/ml): None | No. of Plaques (CMV; Second trial, during and after adsorption, 500 µg/ml): None | No. of Plaques (CMV; [22]): As v.c. | % (CMV; [22]): 100% | No. of Plaques (CMV; [23]): As v.c | % (CMV; [23]): 100% | No. of Plaques (CMV; [24]): 120 125 131 | No. of Plaques Average (CMV; [24]): 125 | plaque size (remark in No. of Plaques cell) (CMV; [24]): much smaller plaques | % (CMV; [24]): 66% | No. of Plaques (CMV; [25]): 119 125 128 | No. of Plaques Average (CMV; [25]): 124 | % (CMV; [25]): 65% | No. of Plaques Average (CMV; [26]): 89 | plaque size (remark in No. of Plaques cell) (CMV; [26]): smaller plaques | % (CMV; [26]): 47% | No. of Plaques (CMV; [27]): As v.c. | % (CMV; [27]): 100% | No. of Plaques (CMV; [28]): As v.c. | No. of Plaques Average (CMV; [28]): 141 | % (CMV; [28]): 100% | No. of Plaques (CMV; [29]): 148 140 135 | % (CMV; [29]): 74% | No. of Plaques (CMV; [30]): 120 115 111 | No. of Plaques Average (CMV; [30]): 115 | plaque size (remark in No. of Plaques cell) (CMV; [30]): much smaller plaques | % (CMV; [30]): 61% | state of monolayer (printed in place of No. of Plaques) (CMV; Third trial, during adsorption only, 62 µg/ml, MRC 5 cell line): monolayer destroyed | No. of Plaques (CMV; [31]): 128 125 121 | No. of Plaques Average (CMV; [31]): 125 | % (CMV; [31]): 66% | No. of Plaques (CMV; [32]): 119 115 103 | No. of Plaques Average (CMV; [32]): 122 | % (CMV; [32]): 64% | No. of Plaques Average (CMV; [33]): 76 | % (CMV; [33]): 40% | No. of Plaques Average (CMV; [34]): 60 | % (CMV; [34]): 32% | No. of Plaques Average (CMV; [35]): 48 | % (CMV; [35]): 25%
